Results on one molecule are retold here after patent US20230285598A1, “SULFOXONIUM YLIDE DERIVATIVES AS PROBES FOR CYSTEINE PROTEASE” (Takeda Pharmaceutical Company Limited, priority 2018, published 2023).

Each structure is given as a SMILES string. “Also recorded” adds a separate entry of the source.

Assay [1] addresses T1, cathepsin X (Mus musculus, UniProt Q9WUU7). Description: Confocal microscopy of kidney cryosections after in vivo probe administration. The procedure: Kidney tissues from mice that received sCy5-Nle-SY (or vehicle control) above were fixed overnight in 4% paraformaldehyde in PBS followed by overnight cryoprotection in 30% sucrose. Tissues were embedded in OCT, frozen on dry ice, and sectioned at 10 µm. Immunostaining for cathepsin X was carried out according to standard protocols. In brief, sections were air dried, fixed in cold acetone for 10 minutes, air dried again, and then rehydrated in PBS. Sections were blocked in PBS containing 3% normal horse serum with 0.1% Triton X-100. Goat anti-cathepsin X was added at 1:100 in blocking buffer overnight at 4° C. Sections were then washed, and secondary antibody, donkey anti-goat-AlexaFluor594 was added at 1:500 for 1 hour at room temperature. Sections were stained with DAPI for 5 minutes, washed, and mounted with ProLong Diamond. Staining was analyzed using a Leica SP8 inverted confocal microscope.
Additionally, after in vivo probe administration, kidney cryosections from sCy5-Nle-SY-injected mice or no-probe control were prepared and analyzed by confocal microscopy for sCy5 fluorescence (red) or cathepsin X immunoreactivity (green) along with DAPI (blue) to visualize nuclei. […] Thus, sCy5-Nle-SY could be used to distinguish active cathepsin X relative to total cathepsin X in tissues after in vivo administration.

In assay [2] the target is T1, cathepsin X. Kind of assay: Probe labeling of RAW264.7 cell lysates, SDS-PAGE in-gel fluorescence. The format is biochemical. The arrangement: protein lysates prepared from RAW264.7 cells; host or cells: RAW264.7. As to conditions: Example 6; 0.01-5 µM for 20 minutes. The protocol:
ells were harvested by scraping, washed once with PBS, and resuspended in lysis buffer containing 50 mM citrate [pH 5.5], 0.5% CHAPS, 0.1% Triton X-100, and 4 mM DTT. Cells were incubated on ice for at least 10 minutes with intermittent vortexing followed by centrifugation ([…] at 4° C. or 5 minutes). Cleared supernatants were then transferred to a fresh tube and protein concentration was determined by BCA. Total protein (50 µg) was aliquoted into tubes in a final volume of 20 µl lysis buffer. Where indicated, JPM-OEt or MDV-590 were added from a 100x DMSO stock and incubated at 37° C. or 20 minutes prior to probe addition. The indicated concentration of probe was added from a 100x DMSO stock. Labeling was carried out at 37° C. or 20 minutes (unless otherwise indicated), and the reactions were quenched by the addition of 5x sample buffer (200 mM Tris-Cl [pH 6.8], 8% SDS, 0.04% bromophenol blue, 5% b-mercaptoethanol, and 40% glycerol). Samples were then boiled for five minutes and proteins were resolved on a 15% SDS-PAGE gel. The gels were scanned on a Typhoon 5 flatbed laser scanner at 633/670 nm excitation/emission to detect sCy5 fluorescence.
robe-labeled lysate from above (in sample buffer) was divided into input or pulldown (~50 µg total protein each). The input sample was stored at -20° C. The pulldown sample was diluted in 500 µl IP buffer (PBS [pH 7.4],[…], 1 mM EDTA). Goat anti-cathepsin X antibody (10 µl) was added along with 40 µl slurry of pre-washed Protein A/G agarose beads. Samples were rotated overnight at 4° C. Beads were then washed four times with IP buffer followed by a final wash in 0.9% NaCl. Beads were then resuspended in 2x sample buffer and boiled. The pulldown supernatants, alongside the input samples, were analysed by fluorescent SDS-PAGE as above.
In Example 3, the sulfoxonium ylide probe sCy5-Val-SY was incubated with protein lysates prepared from RAW264.7 cells, an immortalized mouse macrophage line that contains high levels of active cysteine cathepsins (Verdoes et al., 2013). Cells were lysed in citrate buffer (pH 5.5) to provide optimal conditions for cathepsin activation, and the probe was added • at 1 µM for 20 minutes • at various concentrations (0 µM, 0.01 µM, 0.05 µM, 0.1 µM, 0.5 µM or 1 µM) for 20 minutes; or • at 1 µM for varying times (0, 1, 2, 5, 10, 20, and 30 minutes).
Then the lysates were resolved by SDS-PAGE and the gel scanned for sCy5 fluorescence using a flatbed laser scanner.
The labeling profile of sCy5-Val-SY was compared to that of BMV109, the pan-cathepsin probe, by repeating the above experiment using BMV109 as the probe added at 1 µM for 20 minutes.
In Example 6, a small library of sulfoxonium ylide probes with varying amino acids in the P1 position as prepared in accordance with Example 1 was tested in RAW264.7 lysates, and compared to BMV109. Each probe was added with increasing probe concentrations of 0.01 µM, 0.05 µM, 0.1 µM, 0.5 µM, 1 µM and 5 µM for 20 minutes).

Assay [3] deals with T1, cathepsin X. Kind of assay: In vivo probe labeling in mice (intravenous), tissues analyzed by fluorescent SDS-PAGE. The procedure:
For in vivo labeled tissues, mice were first injected intravenously via the tail vein with sCy5-Nle-SY, BMV109, or sCy5-Nle-AOMK (50 nmol in 100 µl 10% DMSO/PBS or vehicle control). Tissues were harvested and analyzed as above except without further probe addition.
In Example 10, the probe sCy5-Nle-SY, vehicle control/no probe (NP) or BMV109 were injected into mice intravenously. After two hours of circulation, tissues were harvested, lysed, and analyzed for probe labeling by fluorescent SDS-PAGE.
In Example 12, the AOMK probe sCy5-Nle-AOMK was tested in vivo and its labeling in tissues was analyzed. The probe was injected into mice intravenously. After two hours of circulation, tissues were harvested, lysed, and analyzed for probe labeling by fluorescent SDS-PAGE.

The target in assay [4] is T1, cathepsin X. Description: Probe labeling of kidney lysates, in-gel fluorescence. In kind it is biochemical. As to conditions: 0.1-5 µM for 20 minutes. The procedure:
issues were harvested from healthy mice and snap frozen. At the time of analysis, lysis buffer was added at 10x volume:weight, and tissues were sonicated on ice. Cleared lysates were labeled with the indicated probe and analyzed as above.
In Example 7, sulfoxonium ylide probes as prepared in accordance with Example 1 were tested in kidney lysates and the results compared to BMV109. The sulfoxonium ylide probes (and BMV109) were each added with increasing probe concentrations of 0.1 µM, 0.5 µM, 1 µM and 5 µM for 20 minutes.

The mark [5] stands for this setting: intravenous 50 nmol, two hours of circulation.

T1 sequence (Q9WUU7 64-306): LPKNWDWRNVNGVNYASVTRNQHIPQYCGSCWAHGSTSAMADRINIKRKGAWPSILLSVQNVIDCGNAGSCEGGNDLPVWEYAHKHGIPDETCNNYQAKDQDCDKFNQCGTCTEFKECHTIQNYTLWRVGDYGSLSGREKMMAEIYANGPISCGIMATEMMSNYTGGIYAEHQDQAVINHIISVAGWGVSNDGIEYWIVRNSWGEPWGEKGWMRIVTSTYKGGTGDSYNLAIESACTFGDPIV

Consider `CCCC[C@H](NC(=O)CCCCCN1/C(=C/C=C/C=C/C2=[N+](CC)c3ccc(S(=O)(=O)[O-])cc3C2(C)C)C(C)(C)c2cc(S(=O)(=O)O)ccc21)C(=O)C=S(C)(C)=O` [sCy5-Nle-SY], for which, at cathepsin X [1] (after in vivo probe administration), the “sCy5 fluorescence in kidney cryosections” value is recorded as “Strong punctate sCy5 fluorescence was observed”. Further, the “overlap of sCy5 signal with cathepsin X immunoreactivity” value at cathepsin X [1] (kidney cryosections after in vivo probe administration) is “signal largely overlapped with immunoreactive cathepsin X”. Moreover, the “potency of labeling in RAW264.7 lysates” value at cathepsin X [2] is listed as “the most potent”. Besides, at cathepsin X [3] (setting [5]), the “labeling of cathepsin S, B and L in tissues after in vivo administration” value is “some labeling of cathepsin S was also observed; also recorded: does not label cathepsin B or L”; the “labeling of cathepsin X in tissues after in vivo administration” value is “Labeling of cathepsin X was observed in liver, kidney, colon, stomach, and spleen”. The “overall specificity profile in vivo” value on cathepsin X [3] (intravenous, two hours, compared to BMV109) was “clearly improved compared to BMV109”. In addition, at cathepsin X [4], the “potency and specificity of labeling in kidney lysates” value is “the most potency and specificity for cathepsin X”.
